In ChEMBL document CHEMBL1201862, “PubChem BioAssay data set” (2004):
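Following 48 hours of exposure in 96-well plates, responses at five concentrations were used to interpolate endpoints linearly. GI50: concentration for 50% inhibition of growth.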 Activity calls are given as the source filed them. Cut-off read from the data, not from the text of the source: active = GI50 up to about 1.1 µM and inactive = higher.

Experiments:
Test in all cases: NCI tumour cell line growth inhibition, 48 h
BT-549 = system: BT-549
U-251 = system: U-251
Malme-3M = system: Malme-3M
MDA-MB-231 = system: MDA-MB-231
NCI-H226 = system: NCI-H226
PC-3 = system: PC-3
T47D = system: T47D
COLO 205 = system: COLO 205
MOLT-4 = system: MOLT-4
UACC-62 = system: UACC-62
HL-60 = system: HL-60
A549 = system: A549
UO-31 = system: UO-31
786-0 = system: 786-0
OVCAR-3 = system: OVCAR-3
ACHN = system: ACHN
OVCAR-4 = system: OVCAR-4
SR = system: SR
UACC-257 = system: UACC-257
Hs-578T = system: Hs-578T

Structure (SMILES) | GI50 (BT-549) | GI50 (U-251) | GI50 (Malme-3M) | GI50 (MDA-MB-231) | GI50 (NCI-H226) | GI50 (PC-3) | GI50 (T47D) | GI50 (COLO 205) | GI50 (MOLT-4) | GI50 (UACC-62) | GI50 (HL-60) | GI50 (A549) | GI50 (UO-31) | GI50 (786-0) | GI50 (OVCAR-3) | GI50 (ACHN) | GI50 (OVCAR-4) | GI50 (SR) | GI50 (UACC-257) | GI50 (Hs-578T)
CN(CCN1C(=O)c2cccc3cccc(c23)C1=O)CCN1C(=O)c2cccc3cccc(c23)C1=O | 53.1 µM (inactive) | 12.2 µM (inactive) | 6 µM (inactive) | 13.7 µM (inactive) | 17.5 µM (inactive) | > 100 µM (inactive) | 1.5 µM (inactive) | 2.55 µM (inactive) | 7.73 µM (inactive) | 30 µM (inactive) | 68.7 µM (inactive) | 27.6 µM (inactive) | 5.81 µM (inactive) | 9.02 µM (inactive) | 21.2 µM (inactive) | 7.69 µM (inactive) | > 100 µM (inactive) | 3.37 µM (inactive) | 60.1 µM (inactive) | 12 µM (inactive)
CS(=O)(=O)c1ccc(/N=C/C=C/Nc2ccc(S(C)(=O)=O)cc2)cc1 | > 100 µM (inactive) | > 100 µM (inactive) | > 100 µM (inactive) | > 100 µM (inactive) | > 100 µM (inactive) | > 100 µM (inactive) | > 100 µM (inactive) | > 100 µM (inactive) | > 100 µM (inactive) | > 100 µM (inactive) | > 100 µM (inactive) | > 100 µM (inactive) | > 100 µM (inactive) | > 100 µM (inactive) | > 100 µM (inactive) | > 100 µM (inactive) | > 100 µM (inactive) | > 100 µM (inactive) | > 100 µM (inactive) | > 100 µM (inactive)
O=C1c2cc([N+](=O)[O-])sc2C(=O)c2cc([N+](=O)[O-])sc21 | 2.05 µM (inactive) | 1.79 µM (inactive) | 0.34 µM (active) | 2.07 µM (inactive) | 12.3 µM (inactive) | 4.6 µM (inactive) | 3.55 µM (inactive) | 2.02 µM (inactive) | 2.84 µM (inactive) | 1.87 µM (inactive) | 0.0957 µM (active) | 20.2 µM (inactive) | 3.19 µM (inactive) | 2.52 µM (inactive) | 2.41 µM (inactive) | 3.85 µM (inactive) | 4.51 µM (inactive) | 0.268 µM (active) | 5.16 µM (inactive) | 9.18 µM (inactive)
C[N+]1([O-])CCC(O)(C2CC2)CC1 (stereo not given) | > 100 µM (inactive) | > 100 µM (inactive) | > 100 µM (inactive) | > 100 µM (inactive) | > 100 µM (inactive) | > 100 µM (inactive) | > 100 µM (inactive) | > 100 µM (inactive) | > 100 µM (inactive) | > 100 µM (inactive) | > 100 µM (inactive) | > 100 µM (inactive) | > 100 µM (inactive) | > 100 µM (inactive) | > 100 µM (inactive) | > 100 µM (inactive) | > 100 µM (inactive) | > 100 µM (inactive) | > 100 µM (inactive) | > 100 µM (inactive)
COC(=O)CNC(=O)C(Cc1ccccc1)NC(=O)c1ccc(-c2ccc(Cl)cc2Cl)o1 (stereo not given) | 26.4 µM (inactive) | 28.5 µM (inactive) | 21.5 µM (inactive) | 19 µM (inactive) | 48.4 µM (inactive) | 21.1 µM (inactive) | 20.7 µM (inactive) | 14.6 µM (inactive) | 14.3 µM (inactive) | 13.6 µM (inactive) | 12.2 µM (inactive) | 25 µM (inactive) | 52.6 µM (inactive) | 16.9 µM (inactive) | 22.4 µM (inactive) | 18.9 µM (inactive) | 21.5 µM (inactive) | 14.9 µM (inactive) | 17.8 µM (inactive) | 15.3 µM (inactive)
COc1ccc2nc3cc(Cl)ccc3c(NCCCNCc3cc(OC)c(OC)c(OC)c3)c2c1 | 1.76 µM (inactive) | 1.76 µM (inactive) | 2.23 µM (inactive) | 1.98 µM (inactive) | 1.67 µM (inactive) | 1.4 µM (inactive) | 1.89 µM (inactive) | 1.31 µM (inactive) | 0.515 µM (active) | 1.91 µM (inactive) | 0.895 µM (active) | 1.83 µM (inactive) | 1.65 µM (inactive) | 1.4 µM (inactive) | 1.83 µM (inactive) | 1.62 µM (inactive) | 1.78 µM (inactive) | 1.2 µM (inactive) | 1.94 µM (inactive) | 2.95 µM (inactive)
CC(=O)OCC1OC(n2c3c(cc(C#N)c2=S)CCCCCC3)C(OC(C)=O)C(OC(C)=O)C1OC(C)=O (stereo not given) | > 100 µM (inactive) | 91 µM (inactive) | > 100 µM (inactive) | > 100 µM (inactive) | > 100 µM (inactive) | > 100 µM (inactive) | 5.2 µM (inactive) | 84.1 µM (inactive) | 26.1 µM (inactive) | 54.7 µM (inactive) | 36.2 µM (inactive) | > 100 µM (inactive) | > 100 µM (inactive) | 99.8 µM (inactive) | > 100 µM (inactive) | > 100 µM (inactive) | > 100 µM (inactive) | 36.8 µM (inactive) | > 100 µM (inactive) | 97.9 µM (inactive)
CC[C@@]1(O)C(=O)OCc2c1cc1n(c2=O)Cc2c-1nc1ccccc1c2/C=N\NC(=O)C(N)=O | 3.44 µM (inactive) | 0.0398 µM (active) | 7.06 µM (inactive) | 31.8 µM (inactive) | 0.219 µM (active) | 4.36 µM (inactive) | < 0.01 µM (active) | > 50.1 µM (inactive) | < 0.0138 µM (active) | 0.0332 µM (active) | 0.0582 µM (active) | 0.859 µM (active) | 0.284 µM (active) | 0.0705 µM (active) | 18.3 µM (inactive) | < 0.0151 µM (active) | 38.3 µM (inactive) | < 0.01 µM (active) | 14.4 µM (inactive) | 56.9 µM (inactive)
COC(=O)c1c(O)ccc2[nH]c3c(O)c4ccccc4cc3c12 | 39.3 µM (inactive) | 36.5 µM (inactive) | 20.2 µM (inactive) | 75 µM (inactive) | 65.8 µM (inactive) | 30.4 µM (inactive) | 15.1 µM (inactive) | 18.3 µM (inactive) | 37.2 µM (inactive) | 61.4 µM (inactive) | 14.1 µM (inactive) | 32.2 µM (inactive) | 26.8 µM (inactive) | 32 µM (inactive) | 15.9 µM (inactive) | 27.9 µM (inactive) | 25.5 µM (inactive) | 43.5 µM (inactive) | 34.1 µM (inactive) | 23.7 µM (inactive)
C1COCCN1.S=C(S)N1CCOCC1 | > 100 µM (inactive) | 4.98 µM (inactive) | 28.4 µM (inactive) | > 100 µM (inactive) | > 100 µM (inactive) | > 100 µM (inactive) | > 100 µM (inactive) | 0.661 µM (active) | 1.47 µM (inactive) | 3.8 µM (inactive) | 1.12 µM (inactive) | 8.24 µM (inactive) | > 100 µM (inactive) | 10.1 µM (inactive) | 2.68 µM (inactive) | > 100 µM (inactive) | 6.9 µM (inactive) | 1.04 µM (active) | 4.68 µM (inactive) | > 100 µM (inactive)
CC1C2CC(CC2N)C1(C)C (stereo not given) | > 100 µM (inactive) | > 100 µM (inactive) | > 100 µM (inactive) | > 100 µM (inactive) | > 100 µM (inactive) | > 100 µM (inactive) | > 100 µM (inactive) | > 100 µM (inactive) | > 100 µM (inactive) | > 100 µM (inactive) | > 100 µM (inactive) | > 100 µM (inactive) | > 100 µM (inactive) | > 100 µM (inactive) | > 100 µM (inactive) | > 100 µM (inactive) | > 100 µM (inactive) | > 100 µM (inactive) | > 100 µM (inactive) | > 100 µM (inactive)
CCOC(=O)C1(Cc2ccccc2)Cc2cc3c(cc2C1=O)CCC3 (stereo not given) | > 100 µM (inactive) | > 100 µM (inactive) | > 100 µM (inactive) | > 100 µM (inactive) | > 100 µM (inactive) | > 100 µM (inactive) | > 100 µM (inactive) | > 100 µM (inactive) | > 100 µM (inactive) | > 100 µM (inactive) | > 100 µM (inactive) | > 100 µM (inactive) | > 100 µM (inactive) | > 100 µM (inactive) | > 100 µM (inactive) | > 100 µM (inactive) | > 100 µM (inactive) | > 100 µM (inactive) | > 100 µM (inactive) | > 100 µM (inactive)
CSc1c(C#N)c(N)nc2c(/N=N\c3ccc(Cl)cc3)c(N)nn12 | 2.94 µM (inactive) | 4.33 µM (inactive) | 6.08 µM (inactive) | 2.04 µM (inactive) | 16.9 µM (inactive) | 2.7 µM (inactive) | 1.67 µM (inactive) | 13.5 µM (inactive) | 2.44 µM (inactive) | 3.33 µM (inactive) | 2.31 µM (inactive) | 25 µM (inactive) | 2.13 µM (inactive) | 2.86 µM (inactive) | 1.85 µM (inactive) | 5.66 µM (inactive) | 2.64 µM (inactive) | 2.55 µM (inactive) | 3.27 µM (inactive) | 1.23 µM (inactive)
CCC/C(Cl)=N/OC(=O)Nc1cccc(F)c1 | 2.32 µM (inactive) | 17.3 µM (inactive) | 1.73 µM (inactive) | 13.1 µM (inactive) | 14.6 µM (inactive) | 17 µM (inactive) | 2.71 µM (inactive) | 2.19 µM (inactive) | 1.89 µM (inactive) | 14.4 µM (inactive) | 1.28 µM (inactive) | 19.1 µM (inactive) | 8.97 µM (inactive) | 1.69 µM (inactive) | 2.61 µM (inactive) | 1.55 µM (inactive) | 9.79 µM (inactive) | 0.453 µM (active) | 14.8 µM (inactive) | 9.75 µM (inactive)
